The values that follow come from patent publication US8497376B2, “Inhibitors of c-fms kinase” (Janssen Pharmaceutica N.V., priority 2007, dated 2013).

In general, IC50 refers to the concentration needed to halve the response being measured.

Structures are written as SMILES. Counter-ions that a name gives are not always drawn. Like-named read-outs stand apart in the source and are kept apart here.

Data set [1] deals with mouse bone-marrow derived macrophages. The data set can be described thus: CSF-1-driven mouse bone-marrow derived macrophages assay (BrDU incorporation). The format is cell-based. The settings on record: CSF-1-driven proliferation, 30 hrs culture. On the procedure: Macrophages were derived by culturing mouse bone marrow in alpha-MEM supplemented with 10% FCS and 50 ng/ml recombinant mouse CSF-1 in bacteriologic dishes. On the sixth day, macrophages were detached from dishes, washed, and resuspended to 0.05 million cells/ml in alpha-MEM containing 10% FCS. One hundred ul of cell suspension were distributed per well into 96 well culture plates. Wells were further supplemented with the addition of 50 ul media containing 15 ng/ml CSF-1, 3 uM Indomethacin, and 3× of a dilution series of test compounds. The cells were cultured for 30 hrs at 37 degrees and 5% CO2. During the final six hours, cultures were supplemented with an additional 30 ul of media containing a 1:500 dilution of bromodeoxyuridine (BrDU). At the end of the culture period, the plates were spun at 1000 RPM for 1 minute and 130 ul of media was removed with a pipet and replaced with 150 ul of fixative solution for 1 hour@room temperature. The fixative was then dispelled from the plates and the plates allowed to air dry. Incorporation of BrDU into the fixed, dried cells was quantified using a specific ELISA.

For another data set, the target named is c-fms (Homo sapiens (Human), UniProt P07333). Nature of the data set: Autophosphorylation fluorescence polarization competition immunoassay for c-fms inhibition. The format is biochemical. Particulars: 10 nM c-fms, 1 mM ATP; average of three independent measurements. On the procedure:
The assay buffer used was 100 mM 4-(2-hydroxyethyl)piperazine1-ethanesulfonic acid (HEPES), pH 7.5, 1 mM 1,4-dithio-DL-threitol (DTT), 0.01% (v/v) Tween-20. Compounds were diluted in assay buffer containing 4% dimethylsulfoxide (DMSO) just prior to the assay. […] The kinase reaction was initiated by adding 2 μL of 5 mM ATP (Sigma) in assay buffer. The final concentrations in the assay were 10 nM c-fms, 1 mM ATP, 5 mM MgCl2, 2% DMSO. Control reactions were ran in each plate: in positive and negative control wells, assay buffer (made 4% in DMSO) was substituted for the compound; in addition, positive control wells received 1.2 μL of 50 mM ethylenediaminetetraaceticacid (EDTA). The plates were incubated at room temperature for 45 min. At the end of the incubation, the reaction was quenched with 1.2 μL of 50 mM EDTA (EDTA was not added to the positive control wells at this point; see above). Following a 5-min incubation, each well received 10 μL of a 1:1:3 mixture of anti-phosphotyrosine antibody, 10×, PTK green tracer, 10× (vortexed), FP dilution buffer, respectively (all from PanVera, cat. # P2837). The plate was covered, incubated for 30 min at room temperature and the fluorescence polarization was read on the Analyst. The instrument settings were: 485 nm excitation filter; 530 nm emission filter; Z height: middle of well; G factor: 0.93. […] The reported IC50 values are averages of three independent measurements.
A general note: In fluorescence polarisation assays a small probe gives low polarisation when free and higher when bound to something large.

The nature of the next data set: in vivo. Particulars: Lewis, rat, po. On the procedure: (§1) Chronic, T-cell dependent, erosive arthritis was severe by day 20 at which time twice daily oral dosing was commenced until sacrificed on day 32 to determine if the compound of Example 15 (hereinafter, Compound A) can reverse established disease.
(§2) Compound A was formulated in 5% solutol, 5% ethanol, 90% water. The dose volume was 5 ml/kg.
Exposure: Two hours following the last dose of 3, 10 and 20 mpk, plasma levels of Compound A were 247±22, 802±35, and 1475±70 ng/ml, respectively (mean±SEM).

The test system of data set [2] is streptococcal cell wall (SCW) model of arthritis in rats. Nature of the data set: SCW arthritis in rats (chronic phase, therapeutic dosing). The format is in vivo, rat. The settings on record: for Number of steps taken using hind limbs in a thirty second observation period: average of three rats.
Description: Purpose: A polyarthritis occurs in female Lewis rats following i.p. administration of streptococcal cell wall (SCW) components. The model has an acute non-erosive phase (days 3-7) that is complement and neutrophil dependent and which resolves. A chronic erosive phase begins at about day ten and is dependent on the development of specific T cell immunity to SCW, and possibly to self-antigens. The SCW-induced model has been used less frequently for pharmaceutical testing than the adjuvant-induced or collagen-induced models of arthritis, but each model predicts accurately the anti-inflammatory potential of TNF-inhibitors. The chronic phase of the SCW model is macrophage dependent.
Method: Female Lewis rats (80-100 gm each) were purchased from Charles River. Streptococcal cell wall peptidoglycan-polysaccharide polymers (PG-PS 10S) were purchased from BD (Cat#210866). PG-PS 10S was vortexed for 30 seconds to thoroughly mix the material and sonicated at low energy levels (level 6) for 3 min with a probe type sonicator prior to injection. On day 0, sixty rats were anesthetized using isoflurane, and injected i.p. with 15 μg of rhamnose/gram body weight (BW) in the lower left quadrant of the abdomen. Ten rats were treated in a similar manner with sterile saline.
as §1, §2
Left and right hind ankles of each rat were measured with calipers every day for the first six days (post-injection) and then at least every two or three days for the remainder of the study. Ankles were assigned a clinical score based on erythema and swelling as follows: 1=ankle only; 2=ankle and proximal half of tarsal joint; 3=ankle and entire tarsal joint; 4=involvement of the entire paw including digits. Animal scores represented the sum of the two hind paws.
Disease reversal was accompanied by restoration of function. To assess function, three representative rats per group were videotaped for thirty seconds on days 19 and 32, and steps taken with hind limbs were counted and reported in Table 3. On day 19 following SCW, rats ambulated primarily using front paws. Hind paws were nearly immobilized.

c-fms, sequence (P07333 20-972): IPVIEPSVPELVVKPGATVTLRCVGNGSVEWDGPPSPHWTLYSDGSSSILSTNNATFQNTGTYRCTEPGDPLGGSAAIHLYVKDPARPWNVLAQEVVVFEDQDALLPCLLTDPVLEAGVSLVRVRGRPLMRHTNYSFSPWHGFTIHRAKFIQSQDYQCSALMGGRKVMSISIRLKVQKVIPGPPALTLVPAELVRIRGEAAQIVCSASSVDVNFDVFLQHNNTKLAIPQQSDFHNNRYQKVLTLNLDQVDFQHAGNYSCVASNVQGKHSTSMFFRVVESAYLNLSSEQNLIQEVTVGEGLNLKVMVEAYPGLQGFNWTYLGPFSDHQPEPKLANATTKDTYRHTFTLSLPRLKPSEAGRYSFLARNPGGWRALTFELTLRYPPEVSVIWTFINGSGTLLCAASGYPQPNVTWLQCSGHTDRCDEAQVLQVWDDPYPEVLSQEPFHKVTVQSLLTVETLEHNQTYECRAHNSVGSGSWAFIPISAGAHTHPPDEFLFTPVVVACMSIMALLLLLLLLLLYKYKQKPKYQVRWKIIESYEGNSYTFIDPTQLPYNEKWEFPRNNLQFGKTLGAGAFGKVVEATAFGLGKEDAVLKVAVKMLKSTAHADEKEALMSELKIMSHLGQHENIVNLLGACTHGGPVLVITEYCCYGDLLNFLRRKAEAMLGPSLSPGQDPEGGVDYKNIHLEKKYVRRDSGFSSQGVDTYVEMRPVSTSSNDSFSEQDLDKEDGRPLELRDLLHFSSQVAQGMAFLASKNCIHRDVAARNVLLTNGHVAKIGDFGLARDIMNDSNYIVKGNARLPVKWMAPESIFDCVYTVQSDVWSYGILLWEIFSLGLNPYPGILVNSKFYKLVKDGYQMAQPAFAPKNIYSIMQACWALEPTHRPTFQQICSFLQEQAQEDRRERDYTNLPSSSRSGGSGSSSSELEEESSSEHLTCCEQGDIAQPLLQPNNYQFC

`CC1(C)CC=C(c2nc(C3C[C@@]4(C)O[C@@](C)(C3)[C@H](O)[C@@H]4O)ccc2NC(=O)c2nc(C#N)c[nH]2)CC1` (stereo partly drawn) [Example 18, 4-Cyano-1H-imidazole-2-carboxylic acid[6-[(3-exo)-(6-exo,7-exo-dihydroxy-1,5-dimethyl-8-oxa-bicyclo[3.2.1]oct-3-yl)-2-(4,4-dimethyl-cyclohex-1-enyl)-pyridin-3-yl]-amidetrifluoroacetic acid saft and 4-Cyano-1H-imidazole-2-carboxylic acid[6-[(3-endo)-(6-exo,7-exo-dihydroxy-1,5-dimethyl-8-oxa-bicyclo[3.2.1]oct-3-yl)-2-(4,4-dimethyl-cyclohex-1-enyl)-pyridin-3-yl]-amidetrifluoroacetic acid salt]: the half-inhibitory concentration (IC50) came out at 10 nM in data set [1] (Mus musculus, BMDM) and 0.72 nM at c-fms.

As for `CC1(C)CC=C(c2cc([C@@]3(O)C[C@@]4(C)O[C@@](C)(C3)[C@H](O)[C@@H]4O)ccc2NC(=O)c2nc(C#N)c[nH]2)CC1` [Example 12], the IC50 in data set [1] (Mus musculus, BMDM) is 36 nM; at c-fms, 0.66 nM.

Take `CC1(C)CC=C(c2cc([C@@]3(O)C[C@@]4(C)O[C@@](C)(C3)[C@@H]3OC(C)(C)O[C@@H]34)ccc2NC(=O)c2nc(C#N)c[nH]2)CC1` [Example 11, 4-Cyano-1H-imidazole-2-carboxylic acid[2-(4,4-dimethyl-cyclohex-1-enyl)-4-[(3-exo)-3-hydroxy-1,5-dimethyl-6-exo,7-exo-(dimethylmethylenedioxy)-bicyclo[3.2.1]oct-3-yl]-phenyl]-amide]: the IC50 stood at 2.5 nM in data set [1] (Mus musculus, BMDM) and 1.8 nM at c-fms.

Consider `CC1(C)CC=C(c2nc(C3CC(C)(C)OC(C)(C)C3)ccc2NC(=O)c2nc(C#N)c[nH]2)CC1` [Example 15, 4-Cyano-1H-imidazole-2-carboxylic acid[2-(4,4-dimethyl-cyclohex-1-enyl)-6-(2,2,6,6-tetramethyl-tetrahydro-pyran-4-yl)-pyridin-3-yl]-amide], for which, in data set [1] (Mus musculus, BMDM), the IC50 turned out to be 6.1 nM. Besides, the values for the concentration at 2 h in “in vivo” (3 mg/kg), in “in vivo” (10 mg/kg) and in the data set “in vivo” (20 mg/kg) were 247 ± 22 ng/mL, 802 ± 35 ng/mL and 1480 ± 70 ng/mL, respectively. Moreover, the “Number of steps taken using hind limbs in a thirty second observation period” value was determined as 1.7 in data set [2] (Day 19 (before treatment), 3 mg/kg group); 1.3 in data set [2] (Day 19 (before treatment), 10 mg/kg group); 1.3 in data set [2] (Day 19 (before treatment), 20 mg/kg group); 7.7 in data set [2] (Day 32, 3 mg/kg oral b.i.d.); 7.3 in data set [2] (Day 32, 10 mg/kg oral b.i.d.); 6 in data set [2] (Day 32, 20 mg/kg oral b.i.d.). Moreover, in data set [2] (day 32, rats treated with Compound A), the “use of hind limbs (function)” value is “used hind limbs in a normal fashion”. Further, the “paw swelling (caliper measurements of paw thickness and visual scores)” value in data set [2] (dosing p.o. b.i.d. initiated on day 20 after disease was severe, 3, 10, 20 mpk) is listed as “caused a reversal of paw swelling”.

For the compound `CC1(C)CC=C(c2nc(C3C[C@](C)(CO)O[C@](C)(CO)C3)ccc2NC(=O)c2nc(C#N)c[nH]2)CC1` (stereo partly drawn) [Example 20, 4-Cyano-1H-imidazole-2-carboxylic acid[(4-cis)-(2-cis,6-cis-bis-hydroxymethyl-2,6-dimethyl-tetrahydro-pyran-4-yl)-2-(4,4dimethyl-cyclohex-1-enyl)-pyridin-3-yl]-amide trifluoroacetic acid salt and 4-Cyano-1H-imidazole-2-carboxylic acid[(4-trans)-(2-cis,6-cis-bis-hydroxymethyl-2,6-dimethyl-tetrahydro-pyran-4-yl)-2-(4,4-dimethyl-cyclohex-1-enyl)-pyridin-3-yl]-amide trifluoroacetic acid salt], the IC50 in data set [1] (Mus musculus, BMDM) amounted to 6.5 nM; on c-fms, 0.41 nM.

In the case of `CC1(C)CC=C(c2cc(C3C[C@](C)(CO)O[C@](C)(CO)C3)ccc2NC(=O)c2ncc(C#N)[nH]2)CC1` (stereo partly drawn) [Example 14, 4-Cyano-1H-imidazole-2-carboxylic acid[4-cis-(2-cis,6-cis-bis-hydroxymethyl-2,6-dimethyl-tetrahydro-pyran-4-yl)-2-(4,4-dimethyl-cyclohex-1-enyl)-phenyl]-amide (A) and 4-Cyano-1H-imidazole-2-carboxylic acid[4-trans-(2-cis,6-cis-bis-hydroxymethyl-2,6-dimethyl-tetrahydro-pyran-4-yl)-2-(4,4dimethyl-cyclohex-1-enyl)-phenyl]-amide (B)], the figures for the IC50 (in data set [1] (read-out: BMDM IC50); on c-fms) were 4.7 nM and 1.1 nM, respectively.

In the case of `CC1(C)CC=C(c2cc([C@@]3(O)CC4C=C[C@H](C3)O4)ccc2NC(=O)c2nc(C#N)c[nH]2)CC1` [Example 27, 4-Cyano-N-(2-(4,4-dimethylcyclohex-1-enyl)-4-((3-exo)-3-hydroxy-8-oxabicyclo[3.2.1]oct-6-en-3-yl)phenyl)-1H-imidazole-2-carboxamide], the 50% inhibitory concentration (IC50) came out at 6.9 nM in data set [1] (Mus musculus, BMDM) and 0.66 nM at c-fms.

As to `COC[C@@]12CC[C@@](COC)(C[C@@H](c3ccc(NC(=O)c4nc(C#N)c[nH]4)c(C4=CCC(C)(C)CC4)c3)C1)O2` [Example 6, 4-Cyano-1H-imidazole-2-carboxylic acid[4-[(3-endo)-1,5-bis-methoxymethyl-8-oxa-bicyclo[3.2.1]oct-3-yl]-2-(4,4-dimethyl-cyclohex-1-enyl)-phenyl]-amide], the IC50 is 5 nM in data set [1] (Mus musculus, BMDM) and 2.7 nM on c-fms.

Regarding `C[C@@H]1C2CC[C@@H](O2)[C@H](C)[C@@]1(O)c1ccc(NC(=O)c2nc(C#N)c[nH]2)c(C2=CCC(C)(C)CC2)c1` [Example 29, 4-Cyano-N-(2-(4,4dimethylcyclohex-1-enyl)-4-[(3-exo)-3-hydroxy-(2-endo,4endo-dimethyl)-1,5-dimethyl-8-oxabicyclo[3.2.1]octan-3-yl)pheny]-1H-imidazole-2-carboxamide], the IC50 in data set [1] (Mus musculus, BMDM) worked out at 88 nM; on c-fms it was 14 nM.
